Results reported in patent publication US8507539B2, “Potassium channel blockers and uses thereof” (Bionomics Limited, priority 2008, dated 2013).
Read-outs that look alike come from different tables or passages of the source.

How the values were obtained:
Type in all cases: cell-based
hKv1.3 = hKv1.3 (Homo sapiens, UniProt P22001); assay: Whole-cell patch-clamp block of Kv1.3 current in CHO cells stably expressing hKv1.3
Procedure: (§1) The effectiveness of the generated compounds in blocking the Kv1.3 current was assayed on CHO cells stably expressing hKv1.3. Cells were grown in F12 Kaighns' medium supplemented with 10% fetal calf serum, 2 mM L-glutamine, 1 mM Na^+ pyruvate, 100 units/ml penicillin, 100 Fg/ml streptomycin and 500 μg/ml G418 (to keep them under selection pressure). Kv1.3 currents were measured using the whole-cell configuration of the patch-clamp technique and were evoked by 500 ms depolarising voltage pulses to +40 mV from a holding potential of −80 mV at 30 sec intervals. Cells were continuously bathed in Ringers solution containing (mM): 160 NaCl, 4.5 KCl, 2.5 CaCl2, 1 MgCl2, 10 HEPES, pH 7.4, 290-310 mOsm. The internal (pipette) solution contained (mM): 134 KF, 2 MgCl2, 10 HEPES, 10 EGTA (pH 7.2, 290-310 mOsm). Series resistance compensation (60-80%) was applied when the peak current amplitude exceeded 2 nA. Compounds initially dissolved in DMSO were diluted in bath solution (final DMSO concentration 0.5%) and applied directly to the recording chamber at increasing concentrations allowing ample time for steady state block to be achieved between each concentration. Each compound was tested at 4-5 different concentrations in triplicate. IC50 values were determined by fitting the average normalised reduction of the current integral to the Hill equation.

hKv1.1 = biological target: T1, hKv1.1 (Homo sapiens, UniProt Q09470); assay: Whole-cell patch-clamp inhibition of Kv1.1 currents in CHO cells stably transfected with hKv1.1; conditions: from IC50 values, CHO-hKv1.1 vs CHO-hKv1.3
T1 construct: expressed in transfected cells
T1 sequence (Q09470 whole entry): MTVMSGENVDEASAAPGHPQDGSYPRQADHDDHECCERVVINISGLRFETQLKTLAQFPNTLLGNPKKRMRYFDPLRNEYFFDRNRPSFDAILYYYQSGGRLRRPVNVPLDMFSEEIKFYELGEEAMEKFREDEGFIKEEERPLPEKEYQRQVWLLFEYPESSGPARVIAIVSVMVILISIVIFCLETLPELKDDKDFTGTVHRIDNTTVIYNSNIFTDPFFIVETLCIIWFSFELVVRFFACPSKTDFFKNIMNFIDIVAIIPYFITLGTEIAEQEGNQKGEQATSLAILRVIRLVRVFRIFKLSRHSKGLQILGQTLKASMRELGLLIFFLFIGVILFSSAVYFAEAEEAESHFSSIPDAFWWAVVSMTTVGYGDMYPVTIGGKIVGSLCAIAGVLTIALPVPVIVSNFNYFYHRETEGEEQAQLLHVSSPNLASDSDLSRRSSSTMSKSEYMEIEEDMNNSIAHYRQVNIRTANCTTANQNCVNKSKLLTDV
Procedure: as §1
(§2) IC50 values for inhibition of Kv1.3 currents were determined as described above. IC50 values for inhibition of Kv1.1 and Kv1.5 currents were determined by the method above using Chinese Hamster Ovary (CHO) cells stably transfected with hKv1.1 and hKv1.5.

hKv1.5 = biological target: T2, hKv1.5 (Homo sapiens, UniProt P22460); assay: Whole-cell patch-clamp inhibition of Kv1.5 currents in CHO cells stably transfected with hKv1.5; conditions: from IC50 values, CHO-hKv1.5 vs CHO-hKv1.3
T2 construct: expressed in transfected cells
T2 sequence (P22460 whole entry): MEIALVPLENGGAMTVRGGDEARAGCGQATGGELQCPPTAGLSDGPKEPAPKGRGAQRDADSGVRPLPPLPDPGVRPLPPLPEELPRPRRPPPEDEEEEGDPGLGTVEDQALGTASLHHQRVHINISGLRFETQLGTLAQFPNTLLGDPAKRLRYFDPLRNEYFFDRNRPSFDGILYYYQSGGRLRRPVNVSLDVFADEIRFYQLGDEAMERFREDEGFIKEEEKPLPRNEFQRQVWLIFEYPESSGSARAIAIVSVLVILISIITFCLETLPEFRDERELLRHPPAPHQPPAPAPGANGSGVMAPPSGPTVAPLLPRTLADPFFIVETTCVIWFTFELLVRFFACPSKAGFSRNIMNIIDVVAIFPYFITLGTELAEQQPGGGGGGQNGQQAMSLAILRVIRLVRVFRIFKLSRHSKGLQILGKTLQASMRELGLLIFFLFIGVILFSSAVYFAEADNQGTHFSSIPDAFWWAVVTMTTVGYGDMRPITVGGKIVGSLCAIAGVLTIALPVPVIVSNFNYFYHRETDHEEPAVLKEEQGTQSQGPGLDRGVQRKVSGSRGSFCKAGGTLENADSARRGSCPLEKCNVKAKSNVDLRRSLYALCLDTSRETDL
Procedure: as §1, §2

[1] = CHO cells stably expressing hKv1.3, whole-cell patch clamp, reported as ranges, read-out: IC50 (Kv1.3)
[2] = IC50 for inhibition of Kv1.3 currents, CHO-hKv1.3, read-out: Potency for Kv1.3

hKv1.3, sequence (P22001 whole entry): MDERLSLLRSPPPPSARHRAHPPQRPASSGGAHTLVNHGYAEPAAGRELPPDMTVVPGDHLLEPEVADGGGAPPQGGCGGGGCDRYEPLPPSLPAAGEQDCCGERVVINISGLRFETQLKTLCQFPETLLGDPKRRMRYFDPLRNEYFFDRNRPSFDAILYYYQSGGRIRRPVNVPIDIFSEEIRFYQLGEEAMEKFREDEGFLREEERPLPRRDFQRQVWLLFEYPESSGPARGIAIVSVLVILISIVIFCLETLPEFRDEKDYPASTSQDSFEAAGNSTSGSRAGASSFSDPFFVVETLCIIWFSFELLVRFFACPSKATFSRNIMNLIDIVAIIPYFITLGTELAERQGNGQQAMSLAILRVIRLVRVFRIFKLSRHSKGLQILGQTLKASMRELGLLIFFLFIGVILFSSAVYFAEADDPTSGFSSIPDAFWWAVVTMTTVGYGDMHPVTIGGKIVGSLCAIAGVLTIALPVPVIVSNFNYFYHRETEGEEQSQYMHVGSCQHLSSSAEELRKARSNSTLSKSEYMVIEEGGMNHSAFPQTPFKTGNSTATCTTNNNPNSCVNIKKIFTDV

SMILES | IC50 (hKv1.3; [1]) | IC50 (hKv1.3; [2]) | Selectivity for Kv1.3 over Kv1.1 (hKv1.1) | Selectivity for Kv1.3 over Kv1.5 (hKv1.5)
CC(=O)c1c(OCCN2CCSCC2)c(OCCC(C)c2ccc(F)cc2)c2oc(C)nc2c1C (centres unmarked) [Example 13] | < 50 nM | < 50 nM | 15 fold | 11 fold
CC(=O)c1c(OCCNC2CCCCC2)c(OCCC(C)c2ccc(F)cc2)c2oc(C)nc2c1C (centres unmarked) [Example 18, 5-Acetyl-6-(2-cyclohexylamino-ethoxy)-7-[3-(4-fluorophenyl)butoxy]-2,4-dimethyl-benzooxazole] | < 50 nM | < 50 nM | 11 fold | 12 fold
CC(=O)c1c(OCCN2CCCC(F)(F)C2)c(OCCC(C)c2ccc(F)cc2)c2oc(C(F)F)nc2c1C (centres unmarked) [Example 31b, 5-Acetyl-7-[3-(4-fluorophenyl)butoxy]-6-(2-(3,3-difluoropiperidin-1-yl)-ethoxy)-4-methyl-2-difluoromethyl-benzo[d]oxazole] | < 50 nM | < 50 nM | 21 fold | 29 fold
CC(=O)c1c(OCCN2CCCC(F)(F)C2)c(OCCC(C)c2ccc(F)cc2)c2oc(C)nc2c1Cl (centres unmarked) [Example 39, 5-Acetyl-4-chloro-7-(3-(4-fluorophenyl)butoxy)-6-(2-(3,3-difluoropiperidin-1-yl)ethoxy)-2-methyl-benzo[d]oxazole] | 50 to 200 nM |  |  | 
CC(=O)c1c(OC2CCN(C3CCCC3)CC2)c(OCCC(C)c2ccc(F)cc2)c2oc(C)nc2c1C (centres unmarked) [Example 40c] | 50 to 200 nM |  |  | 
CC(=O)c1c(OC2CN(C3CCCC3)C2)c(OCCC(C)c2ccc(F)cc2)c2oc(C)nc2c1C (centres unmarked) [Example 41b] | 50 to 200 nM |  |  | 
CC(=O)c1c(OCCN2CCCCC2)c(OCCC(C)c2ccc(F)cc2)c2oc(C)nc2c1C (centres unmarked) [Example 42, 5-Acetyl-7-[3-(4-fluorophenyl)butoxy]-6-[2-(piperidin-1-yl)-ethoxy]-2,4-dimethyl-benzooxazole] | < 50 nM | < 50 nM | 25 fold | 24 fold
CC(=O)c1c(OCCN2CCCC(F)(F)C2)c(OCCC(C)c2ccc(F)cc2)c2oc(C)nc2c1C (centres unmarked) [Example 43, 5-Acetyl-7-[3-(4-fluorophenyl)butoxy]-6-[2-(3,3-difluoropiperidin-1-yl)-ethoxy]-2,4-dimethyl-benzooxazole] | < 50 nM |  |  | 
